Data as given in ChEMBL document CHEMBL3217638, “Synthetic modulators of the retinoic acid receptor-related orphan receptors” (Medchemcomm, 2013).
Blank lines part the entries; values can stand above or below the molecule they belong to.

Assays:
[1] = target: T1, Nuclear receptor ROR-gamma (Homo sapiens, UniProt P51449); test: Displacement of 25-[3H]hydroxycholesterol from GST-tagged ROR gamma ligand binding domain (unknown origin) expressed in Escherichia coli BL21 gold (DE3) cells by radioligand competition assay
T1 sequence (P51449 whole entry): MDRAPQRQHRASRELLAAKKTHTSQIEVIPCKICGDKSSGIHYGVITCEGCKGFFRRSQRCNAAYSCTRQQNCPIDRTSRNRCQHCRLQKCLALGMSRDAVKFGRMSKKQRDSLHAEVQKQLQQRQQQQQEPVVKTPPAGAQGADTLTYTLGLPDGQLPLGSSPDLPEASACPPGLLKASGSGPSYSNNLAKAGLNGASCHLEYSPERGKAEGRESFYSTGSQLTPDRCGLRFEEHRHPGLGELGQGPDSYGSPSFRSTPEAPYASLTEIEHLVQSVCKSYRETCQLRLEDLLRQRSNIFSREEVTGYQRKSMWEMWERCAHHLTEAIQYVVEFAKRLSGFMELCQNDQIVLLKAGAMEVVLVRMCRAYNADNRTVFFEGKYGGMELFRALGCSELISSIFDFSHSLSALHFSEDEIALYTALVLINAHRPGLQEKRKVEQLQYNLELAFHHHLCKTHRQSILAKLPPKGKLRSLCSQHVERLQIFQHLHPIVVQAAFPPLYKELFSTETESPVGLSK

[2] = target: T2, Nuclear receptor ROR-alpha (Homo sapiens, UniProt P35398); test: Inverse agonist activity at GAL4-fused ROR alpha (unknown origin) expressed in HEK293 cells assessed as inhibition of transcriptional activity after 24 hrs by luciferase reporter gene assay; type: cell-based
T2 sequence (P35398 whole entry): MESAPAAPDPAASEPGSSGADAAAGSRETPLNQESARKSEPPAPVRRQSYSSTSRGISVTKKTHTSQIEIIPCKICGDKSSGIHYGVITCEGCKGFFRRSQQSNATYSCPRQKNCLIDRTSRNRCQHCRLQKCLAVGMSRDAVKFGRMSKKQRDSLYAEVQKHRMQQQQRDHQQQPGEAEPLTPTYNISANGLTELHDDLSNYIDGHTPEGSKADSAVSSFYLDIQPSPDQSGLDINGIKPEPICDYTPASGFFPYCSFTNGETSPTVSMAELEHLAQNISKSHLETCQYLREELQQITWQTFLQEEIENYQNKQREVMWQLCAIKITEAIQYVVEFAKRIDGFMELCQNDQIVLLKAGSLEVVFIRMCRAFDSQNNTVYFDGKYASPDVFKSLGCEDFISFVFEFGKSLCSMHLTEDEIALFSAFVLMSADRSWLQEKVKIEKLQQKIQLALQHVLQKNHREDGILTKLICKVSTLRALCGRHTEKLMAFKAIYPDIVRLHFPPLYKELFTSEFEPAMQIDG

[3] = target: T1, Nuclear receptor ROR-gamma
Description: Inverse agonist activity at GAL4-fused ROR gamma (unknown origin) expressed in HEK293 cells assessed as inhibition of transcriptional activity after 24 hrs by luciferase reporter gene assay

[4] = target: T2, Nuclear receptor ROR-alpha; test: Displacement of 25-[3H]hydroxycholesterol from GST-tagged ROR alpha ligand binding domain (unknown origin) expressed in Escherichia coli BL21 gold (DE3) cells by radioligand competition assay
[5] = target: T1, Nuclear receptor ROR-gamma; test: Agonist activity at human His6-tagged ROR gamma ligand binding domain (residues 262 to 507) expressed in Escherichia coli BL21 (DE3) cells assessed as increase in recruitment of coactivator peptide by AlphaScreen biochemical assay; type: functional
[6] = target: T3, Nuclear receptor ROR-alpha (Mus musculus) (UniProt P51448); conditions: CHO-K1
T3 sequence (whole entry): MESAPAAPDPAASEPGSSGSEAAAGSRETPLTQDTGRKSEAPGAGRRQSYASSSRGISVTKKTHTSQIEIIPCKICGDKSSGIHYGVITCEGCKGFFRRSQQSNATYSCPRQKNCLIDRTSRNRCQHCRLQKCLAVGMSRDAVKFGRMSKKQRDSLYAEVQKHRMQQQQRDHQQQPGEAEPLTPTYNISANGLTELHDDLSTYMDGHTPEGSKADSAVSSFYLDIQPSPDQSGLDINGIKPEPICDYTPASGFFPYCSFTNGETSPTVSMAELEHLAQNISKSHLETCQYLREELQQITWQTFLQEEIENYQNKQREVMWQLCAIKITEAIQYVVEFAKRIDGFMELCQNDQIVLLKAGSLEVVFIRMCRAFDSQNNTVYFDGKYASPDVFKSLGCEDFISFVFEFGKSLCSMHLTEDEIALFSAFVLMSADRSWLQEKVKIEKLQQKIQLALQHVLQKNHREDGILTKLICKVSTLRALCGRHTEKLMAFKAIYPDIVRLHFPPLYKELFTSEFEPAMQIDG
Description: Inverse agonist activity at mouse ROR alpha expressed in CHO-K1 cells after 24 hrs by luciferase reporter gene assay relative to vehicle control response

[7] = target: T4, Nuclear receptor ROR-gamma (Homo sapiens) (UniProt P51449); test: Binding affinity to human ROR gamma ligand binding domain assessed as thermal stability shift by circular dichroism analysis
T4 sequence (whole entry): T1 sequence (P51449 whole entry)

[8] = target: T1, Nuclear receptor ROR-gamma; test: Agonist activity at full length human ROR gamma expressed in human Jurkat cells assessed as IL17 promoter activation by luciferase reporter gene assay; type: functional, cell-based
[9] = target: T4, Nuclear receptor ROR-gamma (Homo sapiens); test: Agonist activity at ROR gamma in human CD4+ T cells assessed as IL-17 production at 3 uM by ELISA; type: cell-based; conditions: T-cell
[10] = Plasma concentration in mouse at 10 mg/kg, ip after 4 hrs; type: ADME, organism-based; set-up: dose 10 mg/kg, route intraperitoneal
[11] = Plasma concentration in mouse at 10 mg/kg, ip after 0.5 hrs; type: ADME, organism-based; set-up: dose 10 mg/kg, route intraperitoneal
[12] = target: T5, Nuclear receptor ROR-gamma (Mus musculus) (UniProt P51450); conditions: CHO-K1
T5 sequence (whole entry): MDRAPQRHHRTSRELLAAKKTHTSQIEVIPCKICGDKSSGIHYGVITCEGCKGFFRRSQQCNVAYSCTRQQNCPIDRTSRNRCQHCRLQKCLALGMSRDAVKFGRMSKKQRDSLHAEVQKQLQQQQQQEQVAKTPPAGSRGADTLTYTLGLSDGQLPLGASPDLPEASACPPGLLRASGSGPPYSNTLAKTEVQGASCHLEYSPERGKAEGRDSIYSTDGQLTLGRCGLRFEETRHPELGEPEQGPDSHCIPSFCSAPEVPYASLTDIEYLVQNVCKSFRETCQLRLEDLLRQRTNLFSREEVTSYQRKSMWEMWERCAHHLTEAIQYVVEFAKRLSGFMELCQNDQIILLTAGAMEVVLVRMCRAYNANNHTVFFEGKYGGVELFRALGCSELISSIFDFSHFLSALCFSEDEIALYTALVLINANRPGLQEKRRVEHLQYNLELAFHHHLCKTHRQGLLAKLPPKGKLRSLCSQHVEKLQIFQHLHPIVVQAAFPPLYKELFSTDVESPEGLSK
Description: Inverse agonist activity at mouse ROR gamma expressed in CHO-K1 cells after 24 hrs by luciferase reporter gene assay relative to vehicle control response

[13] = target: T6, Oxysterols receptor LXR-alpha (Homo sapiens) (UniProt Q13133); test: Activation of GAL4-fused LXR alpha (unknown origin) expressed in HEK293T cells after 20 hrs relative to T0901317; type: cell-based; conditions: HEK-293T
T6 sequence (whole entry): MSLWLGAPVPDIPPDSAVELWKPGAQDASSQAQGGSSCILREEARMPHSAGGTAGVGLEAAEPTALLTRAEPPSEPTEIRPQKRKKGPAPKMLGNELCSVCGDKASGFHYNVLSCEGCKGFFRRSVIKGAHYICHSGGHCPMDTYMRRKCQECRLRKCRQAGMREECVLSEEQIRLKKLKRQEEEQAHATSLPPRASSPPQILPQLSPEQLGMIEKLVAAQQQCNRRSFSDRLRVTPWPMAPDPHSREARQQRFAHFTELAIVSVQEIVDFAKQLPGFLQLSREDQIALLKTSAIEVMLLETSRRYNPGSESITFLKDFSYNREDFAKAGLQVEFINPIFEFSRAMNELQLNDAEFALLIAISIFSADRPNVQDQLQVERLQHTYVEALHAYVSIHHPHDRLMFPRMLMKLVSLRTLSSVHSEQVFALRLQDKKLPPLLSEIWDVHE

SMILES: CC(=O)Nc1nc(C)c(S(=O)(=O)Nc2ccc(C(O)(C(F)(F)F)C(F)(F)F)cc2)s1
Ki [1]: 111 nM
EC50 [2]: 4000 nM
EC50 [3]: 4000 nM
Ki [4]: 172 nM

SMILES: CC(CO)CCC[C@@H](C)[C@H]1CC[C@H]2[C@@H]3CC=C4C[C@@H](O)CC[C@]4(C)[C@H]3CC[C@]12C (some centres undefined)
EC50 [5]: 20 nM

SMILES: O=S(=O)(c1ccccc1)N(CC(F)(F)F)c1ccc(C(O)(C(F)(F)F)C(F)(F)F)cc1
IC20 [6]: 12000 nM

melting temperature shift (delta Tm) [7]: 3 °C
EC50 [8]: 100 nM
Activity [9]: 220%
SMILES: Cc1cc(C)c2nc(NC(=O)c3sccc3C)sc2c1

SMILES: CC(C)CCC(O)[C@@H](C)[C@H]1CC[C@H]2[C@@H]3CC=C4C[C@@H](O)CC[C@]4(C)[C@H]3CC[C@]12C (some centres undefined)
melting temperature shift (delta Tm) [7]: 7.3 °C

melting temperature shift (delta Tm) [7]: 3 °C
EC50 [8]: 100 nM
SMILES: Cc1cccc(C(=O)Nc2cc(-c3ccccc3)no2)c1

SMILES: CC(C)[C@@H](O)CC[C@@H](C)[C@H]1CC[C@H]2[C@@H]3CC=C4C[C@@H](O)CC[C@]4(C)[C@H]3CC[C@]12C
Ki [1]: 10 nM

SMILES: CC(C)CC[C@@H](O)[C@@H](C)[C@H]1CC[C@H]2[C@@H]3CC=C4C[C@@H](O)CC[C@]4(C)[C@H]3CC[C@]12C [22(R)-HYDROXYCHOLESTEROL]
EC50 [5]: 20 nM

EC50 [2]: 480 nM
Ki [4]: 220 nM
concentration at 4 h [10]: > 0.36 µM
concentration at 0.5 h [11]: 9 µM
SMILES: O=S(=O)(Nc1ccc(C(O)(C(F)(F)F)C(F)(F)F)cc1)c1cccs1

SMILES: CC(C)CCC[C@@H](C)[C@H]1CC[C@H]2[C@@H]3C(=O)C=C4C[C@@H](O)CC[C@]4(C)[C@H]3CC[C@]12C [7-OXOCHOLESTEROL]
Ki [4]: 12 nM

melting temperature shift (delta Tm) [7]: 3 °C
EC50 [8]: 100 nM
SMILES: CCC(=O)Nc1ccc2nn(-c3ccc(CC)cc3)nc2c1

SMILES: CCCCC(O)(Cn1cncn1)c1ccc(Cl)cc1Cl (centres undefined)
IC20 [12]: 3000 nM
IC20 [6]: 10000 nM

Activity [13]: < 5%
SMILES: CC(=O)N1CCN(Cc2ccc(-c3ccc(C(O)(C(F)(F)F)C(F)(F)F)cc3)cc2)CC1
